Data reported in patent US20090215822A1, “Substituted Oxadiazole Derivatives as Positive Allosteric Modulators of Metabotropic Glutamate Receptors” (NIKEM RESEARCH SRL, priority 2005, published 2009).

How the values were obtained:
rat mGluR5 receptor = target: T1, rat mGluR5 receptor (Rattus norvegicus, UniProt P31424); experiment: mGluR5 assay on HEK-expressing rat mGluR5 (fluorescent cell based Ca2+ mobilization assay); settings: HEK-293 cells stably expressing rat mGluR5; no co-addition of glutamate; mean of at least three independent experiments in duplicate; read-out: Ca++ Flux (mean EC50)
T1 construct: expressed in transfected cells
Protocol: Positive functional expression of HEK-293 cells stably expressing rat mGluR5 receptor was determined by measuring intracellular Ca^2+ changes using a Fluorometric Imaging Plate Reader (FLIPR, Molecular Devices, Sunnyvale, Calif.) in response to glutamate or selective known mGluR5 agonists and antagonists. Rat mGluR5 RT-PCR products in HEK-293 cells were sequenced and found 100% identical to rat mGluR5 Genbank reference sequence (NM_017012). HEK-293 cells expressing rmGluR5 were maintained in media containing DMEM, dialyzed Fetal Bovine Serum (10%), Glutamax™ (2 mM), Penicillin (100 units/ml), Streptomycin (100 μg/ml), Geneticin (100 μg/ml) and Hygromycin-B (40 μg/ml) at 37° C./5% CO2.
After one day of incubation, cells were washed with assay buffer containing: 142 mM NaCl, 6 mM KCl, 1 mM Mg2SO4, 1 mM CaCl2, 20 mM HEPES, 1 g/L glucose, 0.125 mM sulfinpyrazone, pH 7.4. After 60 min of loading with 4 uM Fluo-4 (TefLabs, Austin, Tex.), the cells were washed three times with 50 μl of PBS Buffer and resuspended in […] of assay Buffer. The plates were then transferred to a Fluorometric Imaging Plate Reader (FLIPR, Molecular Devices, Sunnyvale, Calif.) for the assessment of intracellular calcium flux. After monitoring the baseline fluorescence for 10 seconds, increasing concentrations of representative compound (from 0.01 to 60 μM) of the present invention diluted in Assay Buffer (15 μl of 4× dilutions) was added to the cell. The final DMSO concentration in the assay was 0.3%. In each experiment, fluorescence was then monitored as a function of time for 3 minutes and the data analyzed using Microsoft Excel and GraphPad Prism. Each data point was also measured two times.
Under these experimental conditions, this HEK-rat mGluR5 cell line is able to directly detect positive allosteric modulators without the need of co-addition of glutamate or mGluR5 agonist.
The concentration-response curves of representative compounds of the present invention were generated using the Prism GraphPad software (Graph Pad Inc, San Diego, USA). The curves were fitted to a four-parameter logistic equation:
(Y=Bottom+(Top-Bottom)/(1+10̂((Log EC50−X)*Hill Slope)
allowing determination of EC50 values.
The Table 1 below represents the mean EC50 obtained from at least three independent experiments of selected molecules performed in duplicate.

T1 sequence (P31424 21-1171 isoform P31424-2 limits assumed): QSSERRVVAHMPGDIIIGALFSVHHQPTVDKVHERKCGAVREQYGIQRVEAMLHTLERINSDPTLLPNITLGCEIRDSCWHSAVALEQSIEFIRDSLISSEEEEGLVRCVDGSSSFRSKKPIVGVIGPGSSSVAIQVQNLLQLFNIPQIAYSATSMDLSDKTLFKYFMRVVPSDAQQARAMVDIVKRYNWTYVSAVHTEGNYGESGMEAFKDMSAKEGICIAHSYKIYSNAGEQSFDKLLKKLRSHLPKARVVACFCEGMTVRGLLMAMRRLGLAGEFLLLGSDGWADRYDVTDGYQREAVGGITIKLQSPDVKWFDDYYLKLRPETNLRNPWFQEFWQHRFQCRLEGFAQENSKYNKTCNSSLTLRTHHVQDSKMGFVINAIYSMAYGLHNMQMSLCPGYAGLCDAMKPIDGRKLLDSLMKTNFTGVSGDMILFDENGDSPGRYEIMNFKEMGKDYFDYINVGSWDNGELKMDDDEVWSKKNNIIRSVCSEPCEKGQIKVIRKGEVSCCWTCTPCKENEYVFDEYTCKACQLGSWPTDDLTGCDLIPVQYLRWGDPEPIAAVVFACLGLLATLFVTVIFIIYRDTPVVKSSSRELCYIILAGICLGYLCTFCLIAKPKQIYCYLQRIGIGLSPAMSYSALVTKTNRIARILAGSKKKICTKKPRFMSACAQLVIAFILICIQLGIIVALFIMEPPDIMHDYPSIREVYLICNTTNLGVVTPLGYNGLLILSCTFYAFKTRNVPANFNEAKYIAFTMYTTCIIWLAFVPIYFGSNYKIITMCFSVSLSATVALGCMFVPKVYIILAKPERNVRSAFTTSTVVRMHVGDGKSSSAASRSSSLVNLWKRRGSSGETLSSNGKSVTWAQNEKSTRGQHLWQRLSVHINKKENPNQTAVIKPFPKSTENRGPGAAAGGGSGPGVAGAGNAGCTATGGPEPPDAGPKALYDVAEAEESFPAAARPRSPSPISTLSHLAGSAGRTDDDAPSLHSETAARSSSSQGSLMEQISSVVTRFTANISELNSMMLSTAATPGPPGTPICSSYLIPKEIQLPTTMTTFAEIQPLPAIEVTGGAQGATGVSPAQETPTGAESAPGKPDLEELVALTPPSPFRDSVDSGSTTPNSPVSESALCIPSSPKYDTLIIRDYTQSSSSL

| Structure (SMILES) | melting point [°C] | EC50 (rat mGluR5 receptor) [µM] |
| --- | --- | --- |
| O=C(c1ccc(F)cc1)N1CCC[C@@H](c2noc(-c3ccc(F)cc3)n2)C1 [Example 2, (4-Fluoro-phenyl)-{(R)-3-[5-(4-fluoro-phenyl)-[1,2,4]oxadiazol-3-yl]-piperidin-1-yl}-methanone] | 120 to 123 | 1 to 10 |
| O=C(c1ccc(F)c(F)c1)N1CCCC(c2noc(-c3ccccc3F)n2)C1 (stereo not shown) [Example 3, (3,4-Difluoro-phenyl)-{3-[5-(2-fluoro-phenyl)-[1,2,4]oxadiazol-3-yl]-piperidin-1-yl}-methanone] | 80 to 83 | < 1 |
| Cc1oncc1C(=O)N1CCCC(c2noc(-c3ccccc3F)n2)C1 (stereo not shown) [Example 7, {3-[5-(2-Fluoro-phenyl)-[1,2,4]oxadiazol-3-yl]-piperidin-1-yl}-(5-methyl-isoxazol-4-yl)-methanone] |  | < 1 |
| O=C(c1ccc(F)c(F)c1)N1CCCC(c2noc(-c3ccc(F)cc3)n2)C1 (stereo not shown) [Example 10, (3,4-Difluoro-phenyl)-{3-[5-(4-fluoro-phenyl)-[1,2,4]oxadiazol-3-yl]-piperidin-1-yl}-methanone] | 149 to 152 | < 1 |
| O=C(c1ccc(F)nc1)N1CCCC(c2noc(-c3ccccn3)n2)C1 (stereo not shown) [Example 12, (6-Fluoro-pyridin-3-yl)-[3-(5-pyridin-2-yl-[1,2,4]oxadiazol-3-yl)-piperidin-1-yl]-methanone] | 124 to 126 | 1 to 10 |
| O=C(c1ccc(F)cc1)N1CCCC(c2noc(-c3ccc(F)cc3F)n2)C1 (stereo not shown) [Example 13, {3-[5-(2,4-Difluoro-phenyl)-[1,2,4]oxadiazol-3-yl]-piperidin-1-yl}-(4-fluoro-phenyl)-methanone] | 88 | < 1 |
| Cc1cc(F)ccc1C(=O)N1CCCC(c2noc(-c3ccccc3F)n2)C1 (stereo not shown) [Example 23, (4-Fluoro-2-methyl-phenyl)-{3-[5-(2-fluoro-phenyl)-[1,2,4]oxadiazol-3-yl]-piperidin-1-yl}-methanone] |  | 1 to 10 |
| O=C(c1ccc(F)cc1)N1CCCC(c2noc(-c3ccccc3)n2)C1 (stereo not shown) [Example 26, (4-Fluoro-phenyl)-[3-(5-phenyl-[1,2,4]oxadiazol-3-yl)-piperidin-1-yl]-methanone] |  | < 1 |
| Cc1cc(F)ccc1C(=O)N1CCCC(c2noc(-c3ccccc3)n2)C1 (stereo not shown) [Example 34, (4-Fluoro-2-methyl-phenyl)-[3-(5-phenyl-[1,2,4]oxadiazol-3-yl)-piperidin-1-yl]-methanone] |  | 1 to 10 |
| O=C(c1ccc(F)cc1)N1CCCC(c2noc(C3CCCC3)n2)C1 (stereo not shown) [Example 35, (4-Fluoro-phenyl)-[3-(5-cyclopentyl-[1,2,4]oxadiazol-3-yl)-piperidin-1-yl]-methanone] |  | 1 to 10 |
| O=C(c1ccc(F)c(F)c1)N1CCC[C@H](c2noc(-c3ccccn3)n2)C1 [Example 47, (S)-(3,4-Difluorophenyl)-{3-[5-(pyridin-2-yl)-[1,2,4]oxadiazol-3-yl]-piperidin-1-yl}-methanone] |  | < 1 |
| Cn1cnc(-c2nc([C@H]3CCCN(C(=O)c4ccc(F)cc4)C3)no2)c1 [Example 48, (4-Fluoro-phenyl)-{(S)-3-[5-(1-methyl-1H-imidazol-4-yl)-[1,2,4]oxadiazol-3-yl]-piperidin-1-yl}-methanone] |  | > 10 |
| O=C(c1ccc(F)cc1)N1CCC[C@H](c2noc(-c3ccncc3F)n2)C1 [Example 49, (4-Fluoro-phenyl)-{(S)-3-[5-(3-fluoro-pyridin-4-yl)-[1,2,4]oxadiazol-3-yl]-piperidin-1-yl}-methanone] |  | 1 to 10 |
| O=C(c1c(F)cc(F)cc1F)N1CCC[C@H](c2noc(-c3ccccn3)n2)C1 [Example 51, [(S)-3-(5-Pyridin-2-yl-[1,2,4]oxadiazol-3-yl)-piperidin-1-yl]-(2,4,6-trifluoro-phenyl)-methanone] |  | < 1 |
| O=C(c1ccc(F)c(F)c1F)N1CCC[C@H](c2noc(-c3ccccn3)n2)C1 [Example 52, [(S)-3-(5-Pyridin-2-yl-[1,2,4]oxadiazol-3-yl)-piperidin-1-yl]-(2,3,4-trifluoro-phenyl)-methanone] |  | < 1 |

Other lines, results leading:

| melting point [°C] | EC50 (rat mGluR5 receptor) [µM] | Structure (SMILES) |
| --- | --- | --- |
|  | < 1 | O=C(c1ccc(F)cc1F)N1CCCC(c2noc(-c3ccccc3F)n2)C1 (stereo not shown) [Example 4, (2,4-Difluoro-phenyl)-{3-[5-(2-fluoro-phenyl)-[1,2,4]oxadiazol-3-yl]-piperidin-1-yl}-methanone] |
|  | 1 to 10 | CNc1cc(F)ccc1C(=O)N1CCCC(c2noc(-c3ccccc3F)n2)C1 (stereo not shown) [Example 5, (4-Fluoro-2-methylamino-phenyl)-{3-[5-(2-fluoro-phenyl)-[1,2,4]oxadiazol-3-yl]-piperidin-1-yl}-methanone] |
| 128 | 1 to 10 | O=C(c1ccc(F)cc1)N1CCCC(c2noc(-c3cscn3)n2)C1 (stereo not shown) [Example 8, (4-Fluoro-phenyl)-[3-(5-thiazol-4-yl-[1,2,4]oxadiazol-3-yl)-piperidin-1-yl]-methanone] |
| 131 to 134 | < 1 | O=C(c1ccc(F)nc1)N1CCCC(c2noc(-c3ccc(F)cc3)n2)C1 (stereo not shown) [Example 9, {3-[5-(4-Fluoro-phenyl)-[1,2,4]oxadiazol-3-yl]-piperidin-1-yl}-(6-fluoro-pyridin-3-yl)-methanone] |
| 126 to 129 | 1 to 10 | O=C(c1ccc(F)cc1)N1CCCC(c2noc(-c3ccccn3)n2)C1 (stereo not shown) [Example 11, (4-Fluoro-phenyl)-[3-(5-pyridin-2-yl-[1,2,4]oxadiazol-3-yl)-piperidin-1-yl]-methanone] |
| 149 to 151 | 1 to 10 | O=C(c1ccc(F)cc1)N1CCCC(c2noc(-c3ccncc3)n2)C1 (stereo not shown) [Example 14, (4-Fluoro-phenyl)-[3-(5-pyridin-4-yl-[1,2,4]oxadiazol-3-yl)-piperidin-1-yl]-methanone] |
|  | > 10 | Cc1oncc1C(=O)N1CCCC(c2noc(-c3ccncc3)n2)C1 (stereo not shown) [Example 20, (5-Methyl-isoxazol-4-yl)-[3-(5-pyridin-4-yl-[1,2,4]oxadiazol-3-yl)-piperidin-1-yl]-methanone] |
|  | 1 to 10 | Cc1cc(F)ccc1C(=O)N1CCCC(c2noc(-c3ccncc3)n2)C1 (stereo not shown) [Example 22, (4-Fluoro-2-methyl-phenyl)-[3-(5-pyridin-4-yl-[1,2,4]oxadiazol-3-yl)-piperidin-1-yl]-methanone] |
|  | < 1 | O=C(c1ccncc1F)N1CCC[C@H](c2noc(-c3ccc(F)cc3)n2)C1 [Example 41, {(S)-3-[5-(4-Fluoro-phenyl)-[1,2,4]oxadiazol-3-yl]-piperidin-1-yl}-(3-fluoro-pyridin-4-yl)-methanone] |
|  | 1 to 10 | O=C(c1cncc(F)c1)N1CCC[C@H](c2noc(-c3ccc(F)cc3)n2)C1 [Example 43, {(S)-3-[5-(4-Fluoro-phenyl)-[1,2,4]oxadiazol-3-yl]-piperidin-1-yl}-(5-fluoro-pyridin-3-yl)-methanone] |
|  | < 1 | O=C(c1ccc(F)c(F)c1)N1CCC[C@H](c2noc(-c3ccc(F)cn3)n2)C1 [Example 45, (S)-(3,4-difluorophenyl)-{3-[5-(5-fluoropyridin-2-yl)-[1,2,4]oxadiazol-3-yl]-piperidin-1-yl}-methanone] |
|  | 1 to 10 | O=C(c1ccc(F)cc1)N1CCC[C@H](c2noc(-c3ccccn3)n2)C1 [Example 46, (S)-(4-fluorophenyl)-{3-[5-(pyridin-2-yl)-[1,2,4]oxadiazol-3-yl]-piperidin-1-yl}-methanone] |
|  | 1 to 10 | O=C(c1ccc(F)c(F)c1)N1CCC[C@H](c2noc(-c3ccncc3F)n2)C1 [Example 50, (3,4-Difluoro-phenyl)-{(S)-3-[5-(3-fluoro-pyridin-4-yl)-[1,2,4]oxadiazol-3-yl]-piperidin-1-yl}-methanone] |
|  | 1 to 10 | O=C(c1c(F)cccc1F)N1CCC[C@H](c2noc(-c3ccccn3)n2)C1 [Example 53, (2,6-Difluoro-phenyl)-[(S)-3-(5-pyridin-2-yl-[1,2,4]oxadiazol-3-yl)-piperidin-1-yl]-methanone] |
|  | < 1 | O=C(c1cc(F)ccc1F)N1CCC[C@H](c2noc(-c3ccccn3)n2)C1 [Example 54, (2,5-Difluoro-phenyl)-[(S)-3-(5-pyridin-2-yl-[1,2,4]oxadiazol-3-yl)-piperidin-1-yl]-methanone] |
|  | 1 to 10 | O=C(c1cccc(F)c1F)N1CCC[C@H](c2noc(-c3ccccn3)n2)C1 [Example 55, (2,3-Difluoro-phenyl)-[(S)-3-(5-pyridin-2-yl-[1,2,4]oxadiazol-3-yl)-piperidin-1-yl]-methanone] |
